Laboratory results taken from PMC5513037, “Examining the influence of specificity ligands and ATP-competitive ligands on the overall effectiveness of bivalent kinase inhibitors” (Proteome Science, 2017).

Key:
Experiment in all cases: KAM-matrix competition in K562 lysate;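 on 0.001 uM KAM: median log10 fold change of treatment over DMSO control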;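 on 0.01 uM KAM: median log10 fold change of treatment over DMSO control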;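 on 0.1 uM KAM: median log10 fold change of treatment over DMSO control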;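 on 1 uM KAM: median log10 fold change of treatment over DMSO control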;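 on 10 uM KAM: median log10 fold change of treatment over DMSO control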
Format in all cases: binding
NME3 = molecular target: T1, NME3 (Homo sapiens, UniProt Q13232);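 on 0.001 uM KAM: median log10 fold change of treatment over DMSO control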;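 on 0.01 uM KAM: median log10 fold change of treatment over DMSO control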;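 on 0.1 uM KAM: median log10 fold change of treatment over DMSO control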;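 on 1 uM KAM: median log10 fold change of treatment over DMSO control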;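 on 10 uM KAM: median log10 fold change of treatment over DMSO control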
T1 construct: endogenous in cells; host or cells: K562
T1 sequence (Q13232 1-169): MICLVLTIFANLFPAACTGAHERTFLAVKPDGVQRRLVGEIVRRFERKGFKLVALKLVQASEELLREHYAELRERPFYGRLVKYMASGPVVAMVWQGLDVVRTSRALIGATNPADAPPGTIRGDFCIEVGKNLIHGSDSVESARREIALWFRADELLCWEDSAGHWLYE
Experimental: (§1) Supplement 12953_2017_125_MOESM1_ESM.zip/MS_Supp Info.xlsx, sheet "KAM" | column: 10 uM KAM; 1 uM KAM; 0.1 uM KAM; 0.01 uM KAM; 0.001 uM KAM; RB50

TEC = molecular target: T2, TEC (Homo sapiens, UniProt P42680)
T2 construct: endogenous in cells; host or cells: K562 cell lysate
T2 sequence (P42680 1-631): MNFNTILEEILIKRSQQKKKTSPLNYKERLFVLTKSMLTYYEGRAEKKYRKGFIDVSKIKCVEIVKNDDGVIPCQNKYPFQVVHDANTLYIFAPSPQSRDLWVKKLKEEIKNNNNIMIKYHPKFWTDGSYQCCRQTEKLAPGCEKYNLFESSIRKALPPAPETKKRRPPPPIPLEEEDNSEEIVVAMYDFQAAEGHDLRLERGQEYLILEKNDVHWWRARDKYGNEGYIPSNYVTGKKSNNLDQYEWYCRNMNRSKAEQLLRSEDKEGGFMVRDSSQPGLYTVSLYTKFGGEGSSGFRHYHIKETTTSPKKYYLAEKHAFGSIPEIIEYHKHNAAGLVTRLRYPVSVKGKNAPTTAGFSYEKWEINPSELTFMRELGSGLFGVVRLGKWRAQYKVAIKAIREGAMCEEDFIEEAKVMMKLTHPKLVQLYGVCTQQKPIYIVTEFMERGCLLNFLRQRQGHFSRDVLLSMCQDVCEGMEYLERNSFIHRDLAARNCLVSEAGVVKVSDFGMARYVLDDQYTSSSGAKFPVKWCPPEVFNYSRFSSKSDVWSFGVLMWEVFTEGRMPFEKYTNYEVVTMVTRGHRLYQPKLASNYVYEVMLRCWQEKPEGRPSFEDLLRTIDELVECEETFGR
Experimental: as §1

MAP3K5 = molecular target: T3, MAP3K5 (Homo sapiens, UniProt Q99683)
T3 construct: endogenous in cells; host or cells: K562 cell lysate
T3 sequence (Q99683 1-1374): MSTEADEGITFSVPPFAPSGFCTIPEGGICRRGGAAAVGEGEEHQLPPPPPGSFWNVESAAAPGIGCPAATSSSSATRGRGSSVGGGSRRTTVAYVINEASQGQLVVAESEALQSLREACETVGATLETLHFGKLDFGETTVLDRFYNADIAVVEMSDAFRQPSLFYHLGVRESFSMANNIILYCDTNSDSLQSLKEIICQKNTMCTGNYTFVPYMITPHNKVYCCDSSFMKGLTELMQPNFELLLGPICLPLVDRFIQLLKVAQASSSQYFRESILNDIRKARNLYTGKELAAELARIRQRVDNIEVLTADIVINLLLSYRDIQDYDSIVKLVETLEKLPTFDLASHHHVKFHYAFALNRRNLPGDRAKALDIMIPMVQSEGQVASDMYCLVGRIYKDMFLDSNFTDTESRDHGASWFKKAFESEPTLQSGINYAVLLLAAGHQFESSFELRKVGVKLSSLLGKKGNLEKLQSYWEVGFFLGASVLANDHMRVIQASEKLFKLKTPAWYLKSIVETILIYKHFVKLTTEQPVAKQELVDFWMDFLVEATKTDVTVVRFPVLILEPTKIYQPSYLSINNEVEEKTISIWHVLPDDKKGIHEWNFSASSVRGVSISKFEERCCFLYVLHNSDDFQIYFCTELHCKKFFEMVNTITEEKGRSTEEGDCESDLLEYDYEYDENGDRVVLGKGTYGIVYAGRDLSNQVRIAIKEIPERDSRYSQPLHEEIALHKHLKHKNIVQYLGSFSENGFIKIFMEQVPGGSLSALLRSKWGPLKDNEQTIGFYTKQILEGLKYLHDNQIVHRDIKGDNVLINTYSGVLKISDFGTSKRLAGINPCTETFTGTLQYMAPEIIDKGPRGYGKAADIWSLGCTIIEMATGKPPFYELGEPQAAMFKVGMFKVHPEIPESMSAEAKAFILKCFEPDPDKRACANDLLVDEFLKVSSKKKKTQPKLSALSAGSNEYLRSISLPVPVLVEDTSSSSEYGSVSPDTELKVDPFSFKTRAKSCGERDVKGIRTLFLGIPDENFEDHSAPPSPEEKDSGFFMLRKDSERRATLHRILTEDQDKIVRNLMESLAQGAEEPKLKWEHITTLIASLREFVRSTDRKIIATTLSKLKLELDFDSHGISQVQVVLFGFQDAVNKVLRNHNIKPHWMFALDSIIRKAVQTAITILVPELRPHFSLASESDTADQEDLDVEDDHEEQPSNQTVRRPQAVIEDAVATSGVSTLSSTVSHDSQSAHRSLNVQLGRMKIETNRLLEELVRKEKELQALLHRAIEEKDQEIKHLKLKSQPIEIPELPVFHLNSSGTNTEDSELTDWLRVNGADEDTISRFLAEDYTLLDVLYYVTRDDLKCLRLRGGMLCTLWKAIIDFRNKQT
Experimental: as §1

AURKC = molecular target: T4, AURKC (Homo sapiens, UniProt Q9UQB9)
T4 construct: endogenous in cells; host or cells: K562
T4 sequence (Q9UQB9 1-309): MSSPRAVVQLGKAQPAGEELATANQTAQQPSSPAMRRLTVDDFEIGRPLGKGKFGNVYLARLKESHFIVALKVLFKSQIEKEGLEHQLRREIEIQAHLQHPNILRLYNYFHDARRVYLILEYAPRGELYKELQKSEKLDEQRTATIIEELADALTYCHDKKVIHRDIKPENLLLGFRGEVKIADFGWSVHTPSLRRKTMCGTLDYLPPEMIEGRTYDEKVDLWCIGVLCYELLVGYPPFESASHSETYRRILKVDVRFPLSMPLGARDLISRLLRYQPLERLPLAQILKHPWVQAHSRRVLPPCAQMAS
Experimental: as §1

[1] = read-out: RB50 (the source's name)

N#CCc1ccc(Nc2nc(NCCCN)cc(Nc3cc(C4CC4)[nH]n3)n2)cc1 [KAM]
IC50 (NME3; KAM 0.001-10 uM, read-out: RB50 (the source's name)): > 10 µM
0.001 uM KAM (NME3; relative to 0 uM KAM = 0): -0.01588
0.01 uM KAM (NME3; relative to 0 uM KAM = 0): -0.01222
0.1 uM KAM (NME3; relative to 0 uM KAM = 0): -0.05319
1 uM KAM (NME3; relative to 0 uM KAM = 0): 0.05076
10 uM KAM (NME3; relative to 0 uM KAM = 0): 0.01706
median Log10 fold change (TEC; 0.001 uM KAM): -0.06308
median Log10 fold change (TEC; 0.01 uM KAM): -0.04798
median Log10 fold change (TEC; 0.1 uM KAM): -0.155
median Log10 fold change (TEC; 1 uM KAM): -0.2973
median Log10 fold change (TEC; 10 uM KAM): -0.4239
IC50 (TEC; [1]): 1.16 µM
median Log10 fold change (MAP3K5; 0.001 uM KAM): -0.02718
median Log10 fold change (MAP3K5; 0.01 uM KAM): -0.01436
median Log10 fold change (MAP3K5; 0.1 uM KAM): -0.08414
median Log10 fold change (MAP3K5; 1 uM KAM): -0.1836
median Log10 fold change (MAP3K5; 10 uM KAM): -0.3705
IC50 (MAP3K5; [1]): 4.18 µM
median Log10 fold change (AURKC; 0.001 uM KAM): 0.0006126
median Log10 fold change (AURKC; 0.01 uM KAM): -0.1035
median Log10 fold change (AURKC; 0.1 uM KAM): -0.4123
median Log10 fold change (AURKC; 1 uM KAM): -0.4901
median Log10 fold change (AURKC; 10 uM KAM): -0.3419
IC50 (AURKC; [1]): 0.075 µM
